Measurements from patent US20230338310A1, “ANTI-VIRAL THERAPY” (priority 2020, published 2023).
Values after ≈ are worked out from the molar mass of the structure shown. “Also recorded” adds a separate entry of the source.

What was measured:
[1] = system: hCoV 229E; assay: Immunoperoxidase assay (TCID50/pfu) and microscopic examination of hCoV 229E-infected MRC-5 lung fibroblast cells; type: cell-based, human coronavirus 229E (ATCC VR/740) in human MRC-5 cells; conditions: MRC-5 cells
[2] = system: hCoV 229E; assay: Immunoperoxidase assay (TCID50/pfu) and microscopic examination of hCoV 229E-infected A549 lung epithelial cells; type: cell-based, human coronavirus 229E (ATCC VR/740) in human A549 cells
[3] = system: hCoV 229E; assay: qPCR of hCoV 229E M protein gene copies in supernatant of infected A549 lung epithelial cells; type: cell-based, human coronavirus 229E in human A549 cells; conditions: 1 or 2 mg/L daily until 5th day, virus dilutions 10^-3 to 10^-5
Procedure: The effect of treatment of coronavirus-infected pulmonary cells with cysteamine was studied using A549 (sample obtained from deposit, deposited under ATCC CCL-185) being a human lung epithelial cell line. Prior to viral challenge A549 cells were grown at 37° C. in 5% CO2 atmosphere in growth media F-12 with Kaighn's modification+10% FBS +pen-strep [F-12K]) to 70-80% confluency in F12-K in tissue-culture-treated 96-well plates. Immediately prior to viral challenge, cells were washed in Hanks balanced salt solution and media was replaced with 100 μl challenge medium per well (F-12K) which contained 1% serum. […] Quantitative (real-time) polymerase chain reaction (qPCR) was carried out using PrecisionPLUS qPCR Master Mix (PrimerDesign) and forward and reverse oligonucleotides (229E Sense & 229E Antisense) specific to the hCoV 229E M protein gene. Amplification was carried out using a MiniOpticon Real-Time PCR system (Bio-Rad) and data was analysed using Opticon Monitor software (Bio-Rad). Analysed samples had been exposed to 10^−3 (1.12×10^12 pfu/ml), 10^−4 (1.12×10^11 pfu/ml) and 10^−5 (1.12×10^10 pfu/ml) of hCoV 229E and conducted from quadruplicate technical replicates. The number of copies of the 229E M protein gene were determined from a standard curve containing known number of copies of the 229E M protein gene.

[4] = system: SARS-CoV-2 (SARS-CoV-2-CVR-Gla-1); assay: SARS-CoV-2 cytopathology (CPE) assay in Vero E6 MESO cells; type: cell-based
[5] = system: IFNβ; assay: IFNβ response of A549 airway epithelial cells infected with human coronavirus 229E (IFN Beta Quantikine kit); type: cell-based; conditions: 10^3 dilution of stock HCoV 229E, single dose of 10 mg/L, 20 h at 37° C., none detected with virus alone
[6] = 14 days of cysteamine therapy adjunct to standard of care therapy; cited from earlier work
[7] = target: T1, glycine decarboxylase (Homo sapiens, UniProt P23378); assay: Glycine utilisation by MRC-5 fibroblasts (fluorometric glycine assay of supernatants); type: cell-based; conditions: 10 mg/L cysteamine, 4 h, glycine 300 μM, insulin 10 mg/L
T1 construct: endogenous in cells; host or cells: MRC-5 airway fibroblast cells
T1 sequence (P23378 36-1020): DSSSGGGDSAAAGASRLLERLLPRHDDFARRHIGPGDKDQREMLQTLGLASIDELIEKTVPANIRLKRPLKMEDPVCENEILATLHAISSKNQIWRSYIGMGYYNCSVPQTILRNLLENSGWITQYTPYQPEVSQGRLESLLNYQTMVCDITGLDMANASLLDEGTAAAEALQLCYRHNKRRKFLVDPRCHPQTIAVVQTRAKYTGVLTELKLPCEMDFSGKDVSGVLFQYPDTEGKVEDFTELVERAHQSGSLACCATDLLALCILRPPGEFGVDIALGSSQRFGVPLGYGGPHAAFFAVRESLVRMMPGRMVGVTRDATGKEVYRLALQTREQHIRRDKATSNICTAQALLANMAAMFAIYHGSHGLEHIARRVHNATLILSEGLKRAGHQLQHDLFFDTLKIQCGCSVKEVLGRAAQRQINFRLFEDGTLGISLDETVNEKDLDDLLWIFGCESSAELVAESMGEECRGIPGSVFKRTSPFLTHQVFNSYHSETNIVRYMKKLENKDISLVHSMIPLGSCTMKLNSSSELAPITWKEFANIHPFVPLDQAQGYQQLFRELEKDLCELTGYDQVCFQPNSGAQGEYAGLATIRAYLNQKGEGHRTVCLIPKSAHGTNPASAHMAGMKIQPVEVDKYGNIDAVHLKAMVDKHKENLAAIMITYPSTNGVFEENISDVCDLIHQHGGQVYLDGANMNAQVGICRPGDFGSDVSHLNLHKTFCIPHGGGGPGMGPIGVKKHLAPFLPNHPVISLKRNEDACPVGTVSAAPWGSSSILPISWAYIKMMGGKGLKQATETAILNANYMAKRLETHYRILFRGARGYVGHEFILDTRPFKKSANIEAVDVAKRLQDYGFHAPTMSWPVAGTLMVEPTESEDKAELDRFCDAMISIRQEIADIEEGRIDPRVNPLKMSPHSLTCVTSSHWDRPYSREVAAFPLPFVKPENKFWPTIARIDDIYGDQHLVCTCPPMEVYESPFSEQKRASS
Procedure: MRC-5 airway fibroblast cells were grown to 90% confluence in 2×12-well plates in EMEM+10% FBS. Cell culture media was replaced with:
Plate 1 • 1. 3×1 ml media alone (EMEM+10% FBS) • 2. 3×1 ml media+insulin (10 mg/L) • 3. 3×1 ml media+added glycine (300 μM) • 4. 3×1 ml media+glycine+insulin
As above, but with the addition of cysteamine to a final concentration of 10 mg/L Cells were then incubated at 37° C. and 5% C02 for 4 h. After incubation cell supernatants were harvested and transferred to labelled cryotubes and stored at −80° C. prior to assessment of glycine content. Insulin strongly stimulates glycine utilisation via glycine decarboxylase.
The supernatants were thawed prior to determining the glycine concentration using the fluorometric glycine assay kit from Abcam (Ab211100).
Manufacturer's instructions were followed and fluorometric assessment of glycine concentration in supernatants and standards was performed on the Biotek Synergy plate reader using 96-well black-walled plates at 535/587 nm (ex/em).

[8] = system: IL-6; assay: IL-6 response of A549 airway epithelial cells infected with human coronavirus 229E (IL-6 Duoset immunoassay); type: cell-based; conditions: 10^3 dilution of stock HCoV 229E, single doses of 2 or 10 mg/L, 20 h at 37° C., one-way ANOVA and Tukey
[9] = 2 mg/L daily for 5 days, all virus concentrations of the study

NCCS [cysteamine, 2-Aminoethanethiol]
viral load (pfu/ml) relative to control without cysteamine ([1]; 2 mg/L): can reduce viral load
protection against infection with hCoV 229E [1, 9]: confer protection against infection
cell monolayer integrity by microscopic examination ([1]; day 4, 2 mg/L cysteamine, untreated cells destroyed at 10^-4 to 10^-7 viral dilution): not seen at all in any of the cysteamine treated cells; also recorded: visible intact monolayer
pfu/ml in wells infected with hCoV 229E ([2]; 1 mg/L cysteamine once a day for 5 days (untreated control 2.21 × 10^14/ml)): 3.94 × 10^15/ml pfu/ml
viral load (pfu/ml) relative to control without cysteamine ([2]; 2 mg/L): can reduce viral load
pfu/ml in wells infected with hCoV 229E ([2]; 2 mg/L cysteamine once a day for 5 days (untreated control 2.21 × 10^14/ml)): 7 × 10^9/ml pfu/ml
protection against infection with hCoV 229E [2, 9]: confer protection against infection
viral load as number of copies of the 229E M protein gene [3]: reduces viral load
IC50 ([4]; Severe acute respiratory syndrome coronavirus 2, Vero C1008, 72 h, read-out: IC50 (CPE induced by SARS-CoV-2)): 21.4 µg/mL (≈ 277 µM)
CPE (Cytopathology) induced by SARS-CoV-2 ([4]; Vero E6 MESO cells): reduced the CPE
protection of the cell monolayer from SARS-CoV-2 CPE ([4]; Vero E6 MESO cells, 128 mg/L, 72 hours post-infection and later): almost complete protection
protection of the cell monolayer from SARS-CoV-2 CPE ([4]; Vero E6 MESO cells, therapeutically-achievable doses, 72 hours post-infection): modest
IFNβ response [5]: IFNβ is detected
CRP levels versus SOCT alone [6]: significantly reduced
WBC levels versus SOCT alone [6]: significantly reduced
insulin-driven utilisation of exogenous glycine [7]: blocked
IL-6 secretion compared with viral infection alone [8]: significantly reduced IL-6 secretion
